Source: patent publication US7994196B2, “Indazole compound and pharmaceutical use thereof” (Mitsubishi Tanabe Pharma Corporation, priority 2004, dated 2011)

The molecules below were run on MMP-9 production (assay: Determination of MMP-9 Production Inhibitory Activity (PMA-stimulated HEC3 cells, gelatin zymography)). Settings: Homo sapiens, Endothelial cell, 24 h, immortalized human vascular endothelial cells HEC3, PMA 10^-7 M stimulation, test substance at 10, 2, 0.4 and 0.08 μM, read-out: IC50 (MMP-9 production inhibitory rate).
Format: cell-based
Method: Immortalized human vascular endothelial cells HEC3 (supplied by Prof. Iijima of Nagoya University) were subcultured in RPMI1640 medium (Sigma Ltd.) containing 10% fetal calf serum.
The HEC3 cells (5×10^4 cells/well) were plated on a 24-well plate, and cultured in RPMI1640 medium containing 10% fetal calf serum for 24 hr. Each well was washed once with serum-free RPMI1640 medium. Then, RPMI1640 medium (250 μl/well) containing 0.05% fetal calf serum was added to each well, and the cells were further cultured for 2 hr.
The supernatant was removed, and the test substances (Example compounds shown in Table 1) diluted to various concentrations were added and incubated for 1 hr in 0.05% serum-containing RPMI1640 medium and the supernatant was removed again. A medium containing a test substance having the same concentration as in the pre-treatment and PMA (10^−7 M), which is a stimulant, was added at 250 μl/well, and the cells were further cultured for 24 hr.
After completion of the culture, water (50 μl) and 25 μl of SDS buffer (240 mM Tris-HCl (pH 6.8), 8% SDS, 40% glycerol) were added to the culture supernatant (25 μl), and the mixture (10 μl) was electrophoresed on a 7.5% polyacrylamide gel containing 0.1% gelatin.
After the electrophoresis, the gel was washed with Tris-HCl buffer (pH 7.5) containing 0.5% Triton X-100 (Sigma Ltd.) for 1 hr. The gel was immersed in an activation buffer (150 mM NaCl, 50 mM Tris-HCl (pH 7.5), 10 mM CaCl2) at 37° C. for 18 hr to activate MMP-9, and then stained with CBB. The obtained MMP-9 band was converted to numerical values by a densitometer (ATTO. Ltd.).
The MMP-9 production inhibitory rate by the test substance was calculated by the following equation. MMP-9 production inhibitory rate=100−100×{(test substance addition value−non-stimulation value)/(PMA stimulation value−non-stimulation value)}
The MMP-9 production inhibitory rates of the test substance at 10, 2, 0.4 and 0.08 μM were calculated, and IC50 value of the each test substance was determined using an analysis soft (RegExcel).

For `O=C(Nc1n[nH]c2ccccc12)N1CCN(c2ccc(Cl)c(Cl)c2)CC1` [Ex. 98, 4-(3,4-dichlorophenyl)-1-piperazinecarboxylic acid (1H-indazol-3-yl)amide], which IC50 is on record?
The IC50 was 220 nM.

Which IC50 does the source give for `O=C(Nc1n[nH]c2ccccc12)N1CCN(c2cc(C(F)(F)F)ccc2Cl)CC1` [Ex. 99, 4-[2-chloro-5-(trifluoromethyl)phenyl]-1-piperazinecarboxylic acid (1H-indazol-3-yl)amide] here?
The IC50 was 610 nM.

Which IC50 does the source give for `O=C(Nc1n[nH]c2ccccc12)N1CCN(c2cccc(C(F)(F)F)c2)CC1` [Ex. 100, 4-[3-(trifluoromethyl)phenyl]-1-piperazinecarboxylic acid (1H-indazol-3-yl)amide] here?
Its IC50 is 230 nM.

Which IC50 does the source give for `O=C(Nc1n[nH]c2ccccc12)N1CCc2c(c(=O)oc3ccccc23)C1` [Ex. 103, 5-oxo-1,5-dihydro-2H-chromeno[3,4-c]pyridine-3-carboxylic acid (1H-indazol-3-yl)amide] here?
Its IC50 is 60 nM.

With `O=C(Nc1n[nH]c2ccccc12)N1CCc2c(c(=O)[nH]c3ccccc23)C1` [Ex. 104, 5-oxo-1,4,5,6-tetrahydrobenzo[c]-2,7-naphthyridine-3-carboxylic acid (1H-indazol-3-yl)amide] as the molecule, how does the IC50 read?
Its IC50 is 10 nM.

With `O=C(Nc1n[nH]c2ccccc12)N1CCn2c(nc3ccccc32)C1` [Ex. 105, 3,4-dihydropyrazino[1,2-a]benzimidazole-2-carboxylic acid (1H-indazol-3-yl)amide] as the molecule, how does the IC50 read?
The IC50 was 40 nM.

With `CN(C)CC1c2[nH]c3ccccc3c2CCN1C(=O)Nc1n[nH]c2ccccc12` (stereo not drawn) [Ex. 108, 1-[(dimethylamino)methyl]-1,3,4,9-tetrahydro-β-carboline-2-carboxylic acid (1H-indazol-3-yl)amide] as the molecule, how does the IC50 read?
Its IC50 is 670 nM.

With `O=C(Nc1n[nH]c2ccccc12)N1CCc2c([nH]c(=O)c3ccccc23)C1` [Ex. 109, 6-oxo-1,4,5,6-tetrahydrobenzo[c]-1,7-naphthyridine-3-carboxylic acid (1H-indazol-3-yl)amide] as the molecule, how does the IC50 read?
The IC50 was 140 nM.

How did the IC50 turn out when `O=C(Nc1n[nH]c2ccccc12)N1CCC(c2cccc(C(F)(F)F)c2)CC1` [Ex. 112, 4-[3-(trifluoromethyl)phenyl]piperidine-1-carboxylic acid (1H-indazol-3-yl)amide] was run?
Its IC50 is 700 nM.

For `CC1CN(C(=O)Nc2n[nH]c3ccccc23)CCN1c1ccc(Cl)c(C(F)(F)F)c1` (stereo not drawn) [Ex. 117], which IC50 is on record?
Its IC50 is 930 nM.

How did the IC50 turn out when `O=C(Nc1n[nH]c2ccccc12)N1CCC(F)(c2ccc(Cl)c(C(F)(F)F)c2)CC1` [Ex. 123, 4-[4-chloro-3-(trifluoromethyl)phenyl]-4-fluoropiperidine-1-carboxylic acid (1H-indazol-3-yl)amide] was run?
Its IC50 is 730 nM.

Which IC50 does the source give for `Cc1ccc(F)c(C2(O)CCN(C(=O)Nc3n[nH]c4ccccc34)CC2)c1` [Ex. 130, 4-(2-fluoro-5-methylphenyl)-4-hydroxy-1-piperidinecarboxylic acid (1H-indazol-3-yl)amide] here?
Its IC50 is 620 nM.

Which IC50 does the source give for `Cc1c(Cl)cccc1C1(O)CCN(C(=O)Nc2n[nH]c3ccccc23)CC1` [Ex. 131, 4-(3-chloro-2-methylphenyl)-4-hydroxy-1-piperidinecarboxylic acid (1H-indazol-3-yl)amide] here?
Its IC50 is 440 nM.

For `Cc1ccc(C2(O)CCN(C(=O)Nc3n[nH]c4ccccc34)CC2)cc1Cl` [Ex. 132, 4-(3-chloro-4-methylphenyl)-4-hydroxy-1-piperidinecarboxylic acid (1H-indazol-3-yl)amide], which IC50 is on record?
The IC50 was 390 nM.

For `Cc1c(F)cccc1C1(O)CCN(C(=O)Nc2n[nH]c3ccccc23)CC1` [Ex. 134, 4-(3-fluoro-2-methylphenyl)-4-hydroxy-1-piperidinecarboxylic acid (1H-indazol-3-yl)amide], which IC50 is on record?
The IC50 was 680 nM.

How did the IC50 turn out when `Cc1ccc(F)cc1C1(O)CCN(C(=O)Nc2n[nH]c3ccccc23)CC1` [Ex. 135, 4-(5-fluoro-2-methylphenyl)-4-hydroxy-1-piperidinecarboxylic acid (1H-indazol-3-yl)amide] was run?
Its IC50 is 490 nM.

Which IC50 does the source give for `Cc1cc(C2(O)CCN(C(=O)Nc3n[nH]c4ccccc34)CC2)ccc1F` [Ex. 136, 4-(4-fluoro-3-methylphenyl)-4-hydroxy-1-piperidinecarboxylic acid (1H-indazol-3-yl)amide] here?
Its IC50 is 410 nM.

`Cc1cc(F)cc(C2(O)CCN(C(=O)Nc3n[nH]c4ccccc34)CC2)c1` [Ex. 138, 4-(3-fluoro-5-methylphenyl)-4-hydroxy-1-piperidinecarboxylic acid (1H-indazol-3-yl)amide] was tested. Which IC50 did it give?
Its IC50 is 100 nM.

For `Cc1ccc(C)c(C2(O)CCN(C(=O)Nc3n[nH]c4ccccc34)CC2)c1` [Ex. 139, 4-(2,5-dimethylphenyl)-4-hydroxy-1-piperidinecarboxylic acid (1H-indazol-3-yl)amide], which IC50 is on record?
Its IC50 is 450 nM.

For `Cc1c(C(F)(F)F)cccc1C1(O)CCN(C(=O)Nc2n[nH]c3ccccc23)CC1` [Ex. 140, 4-hydroxy-4-[2-methyl-3-(trifluoromethyl)phenyl]-1-piperidinecarboxylic acid (1H-indazol-3-yl)amide], which IC50 is on record?
The IC50 was 620 nM.

Which IC50 does the source give for `Cc1ccc(C(F)(F)F)cc1C1(O)CCN(C(=O)Nc2n[nH]c3ccccc23)CC1` [Ex. 141, 4-hydroxy-4-[2-methyl-5-(trifluoromethyl)phenyl]-1-piperidinecarboxylic acid (1H-indazol-3-yl)amide] here?
The IC50 was 320 nM.

`Cc1ccc(C2(O)CCN(C(=O)Nc3n[nH]c4ccccc34)CC2)cc1C` [Ex. 142, 4-(3,4-dimethylphenyl)-4-hydroxy-1-piperidinecarboxylic acid (1H-indazol-3-yl)amide] was tested. Which IC50 did it give?
Its IC50 is 400 nM.

For `Cc1cc(C)cc(C2(O)CCN(C(=O)Nc3n[nH]c4ccccc34)CC2)c1` [Ex. 143, 4-(3,5-dimethylphenyl)-4-hydroxy-1-piperidinecarboxylic acid (1H-indazol-3-yl)amide], which IC50 is on record?
Its IC50 is 280 nM.

For `Cc1cccc(C2(O)CCN(C(=O)Nc3n[nH]c4ccccc34)CC2)c1C` [Ex. 144, 4-(2,3-dimethylphenyl)-4-hydroxy-1-piperidinecarboxylic acid (1H-indazol-3-yl)amide], which IC50 is on record?
The IC50 was 650 nM.
